Here are results for one compound from patent US20240398775A1, “PHARMACEUTICAL COMPOSITION FOR USE IN TREATING COGNITIVE DECLINE OR FOR USE IN TREATING OVERWEIGHT OR OBESITY” (University of the Ryukyus, priority 2021, published 2024).

Assay [1] deals with NL-G-F mice. The experiment in a line: Novel object recognition test in Alzheimer's dementia model mice. The format is in vivo, mouse. Particulars: NL-GF mice (n=5), perampanel 5 mg/kg body weight/day in CD diet from 8 to 13 weeks of age. The procedure:
Mice of CD, HFD, and HFD with PER treatment were handled daily for 5 minutes for 5 days prior to the start of the novel object recognition test. PER means the perampanel, which is an AMPA receptor antagonist. The mice were habituated to a 35 cm square, 25 cm high box for 10 minutes on the first day, and were given 2 identical objects (familiar objects) for 10 minutes on the second day. On the third day, one of the familiar objects was replaced with a novel object of different shape and color (FIG. 2F). […] The search time for each object was measured by offline analysis (47).
NL-GF mice begin to accumulate in the brain of Aβ from 8 weeks of age (Nat. Neurosci. 2014 17, 661-4). In this example, the AD model mouse (n=5) was fed a CD diet containing a perampanel at a dose of 5 mg/kg body weight/day from 8 to 13 weeks of age, and the mouse was subjected to a novel object recognition test. In the negative control (n=5), a normal CD diet without perampanel was taken.
NL-G-F(−/−) mice, a dementia model, were administered with memantine (mema), exercise, memantine and exercise, memantine and perampanel, and perampanel alone (5 mg/kg or 10 mg/kg), and subjected to behavioral experiments. As the behavior test, a novel object recognition test and a hippocampus function-dependent fear conditioning test were performed. […]

Assay [2] has as its system NL(−/−) mice. Put plainly: Bicculine-induced epileptiform reactions in NL(−/−) mice. Particulars: perampanel administration. Type of assay: in vivo, mouse. The text has this:
Epilepsy occurs more frequently in AD patients than in the control population (Pascal E 2012), and the incidence of epilepsy increases to 7 to 21% (Amatniek et al., 2006; Hauser et al., 1986; Mendez and Lim, 2003) in sporadic AD patients and 30% in early-onset familial AD (FAD) (Palop and Mucke, 2009; Larner and Doran, 2006). Early latent hippocampal hyperexcitability was detected in AD patients (Lam A D et al., Nat Med 2017). […] In particular, in NL-G-F(−/−) mice (15 to 17 weeks old), significant enhancement of epileptiform reactions in the CA1 and CA2 regions was confirmed by Bicculine (BIC) (refer to FIG. 32). […] In an animal model of AD in which amyloid β is accumulated, it has been reported that an epileptiform reaction is enhanced (Busche, 2008; 2012). Also in this experiment, epileptic induction by bicrine was enhanced in both NL(−/−) mice and NL-G-F(−/−) (15 to 17 weeks old (W)) as compared with control mice.

As to `N#Cc1ccccc1-c1cc(-c2ccccn2)cn(-c2ccccc2)c1=O` [PER, 3-(2-cyanophenyl)-5-(2-pyridyl)-1-phenyl-1,2-dihydropyridine-2-one], the novel object recognition entry in assay [1] is “significantly distinguish”. The “epileptiform reactions induced by bicculine” value in assay [2] is listed as “almost completely abolished”.
